Data on three molecules can be found in ChEMBL document CHEMBL5291721, “A preclinical secondary pharmacology resource illuminates target-adverse drug reaction associations of marketed drugs” (Nat Commun, 2023).

The target of test [1] is Type-2 angiotensin II receptor (Homo sapiens, UniProt P50052). In kind it is functional.
Test [2] deals with T1, Nuclear receptor subfamily 1 group I member 3 (Homo sapiens, UniProt Q14994).
T1 sequence (Q14994 whole entry): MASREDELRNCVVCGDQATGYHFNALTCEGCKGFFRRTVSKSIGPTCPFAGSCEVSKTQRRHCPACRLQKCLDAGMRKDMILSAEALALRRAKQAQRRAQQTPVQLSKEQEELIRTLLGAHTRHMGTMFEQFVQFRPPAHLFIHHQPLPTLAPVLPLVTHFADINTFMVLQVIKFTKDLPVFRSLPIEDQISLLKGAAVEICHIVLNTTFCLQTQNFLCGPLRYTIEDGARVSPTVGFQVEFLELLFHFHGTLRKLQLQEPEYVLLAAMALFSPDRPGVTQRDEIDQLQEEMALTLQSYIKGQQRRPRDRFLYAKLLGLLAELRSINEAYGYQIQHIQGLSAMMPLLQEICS
Format: functional.

The target of test [3] is T2, Bile acid receptor (Homo sapiens, UniProt Q96RI1).
T2 sequence (Q96RI1 whole entry): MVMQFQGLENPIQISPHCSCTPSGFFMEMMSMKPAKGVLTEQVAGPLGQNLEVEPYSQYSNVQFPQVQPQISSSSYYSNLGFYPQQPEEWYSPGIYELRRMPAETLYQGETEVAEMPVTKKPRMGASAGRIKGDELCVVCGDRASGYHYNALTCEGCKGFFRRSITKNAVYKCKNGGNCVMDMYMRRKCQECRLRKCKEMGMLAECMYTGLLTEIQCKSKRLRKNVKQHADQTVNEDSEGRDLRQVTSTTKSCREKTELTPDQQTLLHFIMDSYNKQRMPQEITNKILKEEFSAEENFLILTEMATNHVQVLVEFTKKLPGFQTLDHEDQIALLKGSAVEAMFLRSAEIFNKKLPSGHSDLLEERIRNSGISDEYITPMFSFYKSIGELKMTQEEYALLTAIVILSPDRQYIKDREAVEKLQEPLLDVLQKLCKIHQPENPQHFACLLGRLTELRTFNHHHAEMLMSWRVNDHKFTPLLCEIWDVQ
Format: functional.

In test [4] the target is T2, Bile acid receptor. Format: functional. This is another data set of the same source.
The target of test [5] is T3, Retinoic acid receptor beta (Homo sapiens, UniProt P10826).
T3 sequence (P10826 whole entry): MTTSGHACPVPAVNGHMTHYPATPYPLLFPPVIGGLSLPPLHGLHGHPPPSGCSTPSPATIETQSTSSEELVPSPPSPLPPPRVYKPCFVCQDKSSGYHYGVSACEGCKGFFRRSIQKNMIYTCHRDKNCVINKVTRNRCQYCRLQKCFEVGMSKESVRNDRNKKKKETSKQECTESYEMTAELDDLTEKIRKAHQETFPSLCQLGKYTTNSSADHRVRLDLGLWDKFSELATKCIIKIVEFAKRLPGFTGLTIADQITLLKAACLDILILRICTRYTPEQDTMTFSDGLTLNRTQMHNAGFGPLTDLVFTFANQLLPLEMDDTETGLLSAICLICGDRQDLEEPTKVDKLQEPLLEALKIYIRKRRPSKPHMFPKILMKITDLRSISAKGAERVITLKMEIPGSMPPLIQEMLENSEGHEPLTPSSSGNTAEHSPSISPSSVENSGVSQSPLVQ
Format: functional, cell-based.

Test [6] addresses T2, Bile acid receptor. In kind it is functional. This is another data set of the same source.
Test [7] deals with T4, Oxysterols receptor LXR-beta (Homo sapiens, UniProt P55055).
T4 sequence (P55055 whole entry): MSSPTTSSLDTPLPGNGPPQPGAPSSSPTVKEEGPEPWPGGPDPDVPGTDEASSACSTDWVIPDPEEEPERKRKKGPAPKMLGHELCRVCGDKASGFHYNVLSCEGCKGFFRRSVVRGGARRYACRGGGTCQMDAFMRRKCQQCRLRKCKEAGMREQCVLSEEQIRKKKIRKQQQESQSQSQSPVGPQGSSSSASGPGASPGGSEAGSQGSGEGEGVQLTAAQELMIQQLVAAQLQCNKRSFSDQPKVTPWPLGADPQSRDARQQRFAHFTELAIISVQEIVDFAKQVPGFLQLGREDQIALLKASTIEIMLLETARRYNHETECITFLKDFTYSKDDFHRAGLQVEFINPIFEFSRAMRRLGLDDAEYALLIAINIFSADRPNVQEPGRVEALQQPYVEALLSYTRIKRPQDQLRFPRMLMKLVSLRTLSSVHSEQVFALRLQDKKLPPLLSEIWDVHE
Format: functional.

Test [8] has as its target T5, Retinoic acid receptor gamma (Homo sapiens, UniProt P13631).
T5 sequence (P13631 whole entry): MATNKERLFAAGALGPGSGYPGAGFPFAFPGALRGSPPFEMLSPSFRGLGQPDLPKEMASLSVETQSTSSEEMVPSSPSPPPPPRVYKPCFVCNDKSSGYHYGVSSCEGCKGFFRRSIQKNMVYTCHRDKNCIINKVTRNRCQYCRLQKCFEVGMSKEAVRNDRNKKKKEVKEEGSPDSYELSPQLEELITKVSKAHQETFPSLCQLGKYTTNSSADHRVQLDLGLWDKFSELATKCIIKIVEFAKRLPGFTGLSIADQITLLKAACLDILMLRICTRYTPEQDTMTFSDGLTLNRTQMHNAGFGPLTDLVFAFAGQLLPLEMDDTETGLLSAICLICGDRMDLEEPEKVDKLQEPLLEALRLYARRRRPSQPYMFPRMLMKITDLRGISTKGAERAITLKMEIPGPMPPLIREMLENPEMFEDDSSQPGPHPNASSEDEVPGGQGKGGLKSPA
In kind it is functional, cell-based.

The target in test [9] is T6, Oxysterols receptor LXR-alpha (Homo sapiens, UniProt Q13133).
T6 sequence (Q13133 whole entry): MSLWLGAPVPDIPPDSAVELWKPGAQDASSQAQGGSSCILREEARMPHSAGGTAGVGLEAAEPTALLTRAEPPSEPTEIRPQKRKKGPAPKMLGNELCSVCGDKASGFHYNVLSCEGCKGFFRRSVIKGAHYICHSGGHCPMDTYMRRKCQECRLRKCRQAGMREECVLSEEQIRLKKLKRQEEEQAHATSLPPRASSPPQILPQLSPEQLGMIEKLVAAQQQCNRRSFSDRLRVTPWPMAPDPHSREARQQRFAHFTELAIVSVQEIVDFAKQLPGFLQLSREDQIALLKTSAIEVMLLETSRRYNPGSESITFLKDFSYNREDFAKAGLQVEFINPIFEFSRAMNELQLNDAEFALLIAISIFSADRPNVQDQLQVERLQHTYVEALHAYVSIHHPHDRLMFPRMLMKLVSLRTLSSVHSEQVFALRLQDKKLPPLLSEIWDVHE
In kind it is functional.
Further: assay procedure not described here.

Chain of Type-2 angiotensin II receptor (P50052 whole entry): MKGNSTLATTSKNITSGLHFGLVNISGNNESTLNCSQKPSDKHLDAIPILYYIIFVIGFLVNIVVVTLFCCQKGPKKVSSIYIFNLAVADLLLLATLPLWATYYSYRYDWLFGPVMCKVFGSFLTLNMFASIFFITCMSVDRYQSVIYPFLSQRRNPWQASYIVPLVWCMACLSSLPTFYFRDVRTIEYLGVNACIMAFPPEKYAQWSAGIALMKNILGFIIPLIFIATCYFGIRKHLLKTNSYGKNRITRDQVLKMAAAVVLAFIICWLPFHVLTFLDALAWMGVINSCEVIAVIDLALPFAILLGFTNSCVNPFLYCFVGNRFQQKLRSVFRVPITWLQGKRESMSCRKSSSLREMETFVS

For orientation: AC50 means the concentration giving half of the maximal activity seen. High values mean weaker potency, low ones greater potency. `CC(C)NCC(O)COc1ccc(COCCOC(C)C)cc1` (stereo not given) [BISOPROLOL] gave a concentration at half-maximal activity (AC50) in [1] greater than 100 µM.

With `Cc1ccc(C(=O)c2cc(O)c(O)c([N+](=O)[O-])c2)cc1` [TOLCAPONE], in test [2], the concentration at half-maximal activity (AC50) is 13 µM.

For the molecule `COc1ccc2c(c1)C(=O)N(CCc1ccc(S(=O)(=O)NC(=O)NC3CCCCC3)cc1)C(=O)C2(C)C` [GLIQUIDONE], the AC50 on Bile acid receptor [3] is greater than 10 µM; at Bile acid receptor [4] it was greater than 10 µM; in test [5] it was 24 µM; at Bile acid receptor [6] it was greater than 30 µM; in test [7], greater than 30 µM; in [2] it was 4.8 µM. The AC50 in [8] amounted to 2.6 µM; in [9], 6.3 µM.
